This passage reports IC50 results from US9555038B2, “Heterocycle-substituted tetracyclic compounds and methods of use thereof for the treatment of viral diseases” (Merck Sharp & Dohme Corp., priority 2013, dated 2017).

The subject of one assay is HCV replicon 1AQ30D. The experiment in a line: Cell-based HCV Replicon Assay B, replicon 1AQ30D. As for the experimental part:
In an alternate assay (“Replicon Assay B”), 1000 cells were seeded per well in a 384-well collagen coated black plate from Greiner bio-one (Cat #781946) in 5% FBS. Inhibitors of this invention were added at 24 h post-seeding, and the plates were incubated for 3 days. Cells were subsequently lysed with Qiagen lysis buffer (Cat #1062731) to extract the RNA. HCV replicon RNA level was measured by real-time PCR using the RNA-to-CT kit from Applied Biosystem (Cat #4392656) and genotype-specific primers and probes. The amplicon was located within NS5B. The sequence of the PCR primers are as follows: 5B.2F, ATGGACAGGCGCCCTGA (SEQ. ID NO. 1); 5B.2R, […] (SEQ. ID NO. 2); the probe sequence was FAM-labeled CACGCCATGCGCTGCGG (SEQ. ID NO. 3). To detect genotype 1A the primer 1A F, TGCGGAACCGGTGAGTACA and 1A R, […] were used; the probe sequence was FAM-[…].
The real-time RT-PCR reactions were run on ABI PRISM 7900HT or Viia7 Sequence Detection System using the following program: 48° C. for 30 minutes, 95° C. for 10 minutes, 40 cycles of 95° C. for 15 sec, 60° C. for 1 minutes. The 50% effective concentration (EC50) was the drug concentration necessary to achieve an increase in the cycle threshold (CT) of 1 over the projected baseline CT.
Data was obtained for various compounds of the present invention using the methods described in the Example above, and is presented in the table immediately below. Data for replicons 1A, 1AY93H and 2B were obtained using Replicon Assay A and data for replicons 1AQ30D and 1B were obtained using Replicon Assay B.
A general note: Replicon systems follow genome replication, usually without infectious particles.

Another assay relates to HCV replicon 2B. The experiment in a line: Cell-based HCV Replicon Assay A, replicon 2B. Summed up:
(§1)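 Replicon cells were seeded at 2000 cells/well with test compound in 10 serial dilutions, starting at 333.3 nM to 1.667 nM, in 0.5% DMSO and 5% FBS. On day 3, cells were washed and lysed, and replicon RNA was quantified by multiplex TaqMan RT-PCR normalised to cyclophilin.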

For the next assay, the system named is HCV replicon 1B. The experiment in a line: Cell-based HCV Replicon Assay B, replicon 1B. The essentials: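 Replicon cells seeded in 5% FBS; compounds added 24 h later, then 3 days' incubation. Replicon RNA quantified by real-time RT-PCR with genotype-specific primers/probes (NS5B amplicon for 1b). EC50 = concentration raising CT by 1 over projected baseline.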

Another assay concerns HCV replicon 1A. The experiment in a line: Cell-based HCV Replicon Assay A, replicon 1A. The essentials:
as §1

The test system of a further assay is HCV replicon 1AY93H. The experiment in a line: Cell-based HCV Replicon Assay A, replicon 1AY93H. The essentials: as §1
The mark [1] stands for this setting: read-out: 1A Q30D IC50, replicon 1AQ30D.
The mark [2] stands for this setting: read-out: 1A Y93H IC50, replicon 1AY93H.
[3] abbreviates: Hepatitis C virus, read-out: 1A Q30D IC50 (nM), replicon 1AQ30D.
Where [4] appears, read: Hepatitis C virus, read-out: 2B IC50 (nM), replicon 2B.
The mark [5] stands for this setting: Hepatitis C virus, read-out: 1A Y93H IC50 (nM), replicon 1AY93H.

Where two headings read alike, the source gives them in different places.

On to `COC(=O)N[C@H](C(=O)N1CCC[C@H]1c1ncc(-c2cc(F)c3c(c2)OC(c2cnc(C4CC4)s2)n2c-3c(F)c3cc(-c4cnc([C@@H]5CCCN5C(=O)[C@@H](NC(=O)OC)C5CCOCC5)[nH]4)ccc32)[nH]1)C(C)C` (single isomer, unassigned) [Compound 42], for which the half-maximal inhibitory concentration (IC50) (as a rule, the concentration that gives 50% inhibition) came out at 0.123 nM in the assay on HCV replicon 1AQ30D (setting [1]); 0.017 nM with HCV replicon 2B (read-out: 2B IC50, replicon 2B); 2 pM in the assay with HCV replicon 1B; 1.6 pM in the assay with HCV replicon 1A; 0.0141 nM in the assay with HCV replicon 1AY93H (setting [2]).

Turning to `COC(=O)N[C@H](C(=O)N1CCC[C@H]1c1ncc(-c2cc(F)c3c(c2)OC(c2ncc(-c4ccc(C#N)cc4)s2)n2c-3cc3cc(-c4cnc([C@@H]5CCCN5C(=O)[C@@H](NC(=O)OC)C(C)C)[nH]4)ccc32)[nH]1)C(C)C` (single isomer, unassigned) [Compound 43], the IC50 worked out at 0.077 nM with HCV replicon 1AQ30D (setting [1]); 0.004 nM in the assay on HCV replicon 2B (read-out: 2B IC50, replicon 2B); 2 pM in the assay on HCV replicon 1B (Hepatitis C virus); 2.3 pM in the assay on HCV replicon 1A (Hepatitis C virus); 0.0081 nM with HCV replicon 1AY93H (setting [2]).

Turning to `COC(=O)N[C@H](C(=O)N1CCC[C@H]1c1ncc(-c2cc(F)c3c(c2)OC(c2cnc(-c4ccc(OC)cc4)s2)n2c-3cc3cc(-c4cnc([C@@H]5CCCN5C(=O)[C@@H](NC(=O)OC)C(C)C)[nH]4)ccc32)[nH]1)C(C)C` (single isomer, unassigned) [Compound 45], the IC50 in the assay on HCV replicon 1AQ30D (setting [3]) turned out to be 0.072 nM; in the assay on HCV replicon 2B (read-out: 2B IC50, replicon 2B), 0.011 nM; in the assay with HCV replicon 1B (Hepatitis C virus), 1 pM; in the assay with HCV replicon 1A (Hepatitis C virus) it was 1.8 pM; in the assay on HCV replicon 1AY93H (setting [2]) it was 0.006 nM.

`COC(=O)N[C@H](C(=O)N1CCC[C@H]1c1ncc(-c2cc(C)c3c(c2)OC(c2ncc(C4CC4)s2)n2c-3cc3cc(-c4cnc([C@@H]5CCCN5C(=O)[C@@H](NC(=O)OC)C5C[C@@H](C)O[C@@H](C)C5)[nH]4)ccc32)[nH]1)C(C)C` (single isomer, unassigned) [Compound 47]: the IC50 in the assay on HCV replicon 1AQ30D (setting [1]) worked out at 2.19 nM; in the assay with HCV replicon 2B (read-out: 2B IC50, replicon 2B), 0.058 nM; with HCV replicon 1B (Hepatitis C virus), 3 pM; in the assay on HCV replicon 1A (Hepatitis C virus), 2 pM; in the assay on HCV replicon 1AY93H (setting [2]), 1.12 nM.

On to `COC(=O)N[C@H](C(=O)N1CCC[C@H]1c1ncc(-c2cc(C)c3c(c2)OC(c2ncc(C4CC4)s2)n2c-3cc3cc(-c4cnc([C@@H]5CCCN5C(=O)[C@@H](NC(=O)OC)C5C[C@@H](C)O[C@@H](C)C5)[nH]4)ccc32)[nH]1)C(C)C` (single isomer, unassigned) [Compound 48], for which the IC50 was 0.31 nM in the assay with HCV replicon 1AQ30D (setting [1]); 0.016 nM in the assay with HCV replicon 2B (read-out: 2B IC50, replicon 2B); 2 pM with HCV replicon 1B; 1.5 pM in the assay with HCV replicon 1A; 0.0538 nM in the assay on HCV replicon 1AY93H (setting [2]).

On to `COC(=O)NC(C(=O)N1CCC[C@H]1c1ncc(-c2ccc3c(c2)cc2n3C(c3ncc(C4CC4)s3)Oc3cc(-c4cnc([C@@H]5CCCN5C(=O)[C@@H](NC(=O)OC)C(C)C)[nH]4)cc(F)c3-2)[nH]1)C1C[C@@H](C)O[C@@H](C)C1` (single isomer, unassigned) [Compound 51], for which the concentration for half-maximal inhibition (IC50) in the assay on HCV replicon 1AQ30D (setting [3]) was determined as 0.152 nM; with HCV replicon 2B (setting [4]), 0.025 nM; in the assay with HCV replicon 1B (Hepatitis C virus), 3 pM; in the assay with HCV replicon 1A (Hepatitis C virus), 2.2 pM; in the assay with HCV replicon 1AY93H (setting [5]) it was 0.0223 nM.

Take `COC(=O)N[C@H](C(=O)N1CCC[C@H]1c1ncc(-c2cc(F)c3c(c2)OC(c2cnc(-c4ccc(Cl)cc4)s2)n2c-3cc3cc(-c4cnc([C@@H]5CCCN5C(=O)[C@@H](NC(=O)OC)C(C)C)[nH]4)ccc32)[nH]1)C(C)C` (single isomer, unassigned) [Compound 53]: the IC50 in the assay on HCV replicon 1AQ30D (setting [3]) is 0.07 nM; in the assay with HCV replicon 2B (read-out: 2B IC50, replicon 2B) it was 0.004 nM; in the assay on HCV replicon 1B (Hepatitis C virus), 1 pM; in the assay with HCV replicon 1A (Hepatitis C virus) it was 1.6 pM; in the assay with HCV replicon 1AY93H (setting [2]) it was 0.0022 nM.

For `COC(=O)NC(C(=O)N1CCC[C@H]1c1ncc(-c2ccc3c(c2)cc2n3C(c3cnc(C(C)C)s3)Oc3cc(-c4cnc([C@@H]5CCCN5C(=O)[C@@H](NC(=O)OC)C(C)C)[nH]4)cc(F)c3-2)[nH]1)C1C[C@@H](C)O[C@@H](C)C1` (single isomer, unassigned) [Compound 57], the IC50 is 0.028 nM with HCV replicon 1AQ30D (setting [3]); 0.005 nM with HCV replicon 2B (read-out: 2B IC50, replicon 2B); 1 pM in the assay on HCV replicon 1B (Hepatitis C virus); 1.6 pM in the assay on HCV replicon 1A; 0.002 nM in the assay on HCV replicon 1AY93H (setting [2]).

As for `CCCc1ncc(C2Oc3cc(-c4cnc([C@@H]5CCCN5C(=O)[C@@H](NC(=O)OC)C(C)C)[nH]4)cc(F)c3-c3cc4cc(-c5cnc([C@@H]6CCCN6C(=O)C(NC(=O)OC)C6CCOC(C)(C)C6)[nH]5)ccc4n32)s1` (single isomer, unassigned) [Compound 59], the IC50 with HCV replicon 1AQ30D (setting [1]) is 0.762 nM; in the assay on HCV replicon 2B (read-out: 2B IC50, replicon 2B), 0.133 nM; in the assay with HCV replicon 1B, 3 pM; with HCV replicon 1A it was 2.6 pM; in the assay on HCV replicon 1AY93H (setting [2]) it was 0.132 nM.

As to `CCCc1ncc(C2Oc3cc(-c4cnc([C@@H]5CCCN5C(=O)[C@@H](NC(=O)OC)C(C)C)[nH]4)cc(F)c3-c3cc4cc(-c5cnc([C@@H]6CCCN6C(=O)C(NC(=O)OC)C6CCOC(C)(C)C6)[nH]5)ccc4n32)s1` (single isomer, unassigned) [Compound 61], the IC50 is 0.07 nM in the assay on HCV replicon 1AQ30D (setting [1]); 0.006 nM in the assay with HCV replicon 2B (read-out: 2B IC50, replicon 2B); 1.7 pM with HCV replicon 1B; 3.3 pM in the assay on HCV replicon 1A; 0.012 nM in the assay on HCV replicon 1AY93H (setting [2]).

For `COC(=O)NC(C(=O)N1[C@@H]2C[C@@H]2C[C@H]1c1ncc(-c2ccc3c(c2)cc2n3C(c3ncc(C4CC4)s3)Oc3cc(-c4cnc([C@@H]5CCCN5C(=O)[C@@H](NC(=O)OC)C(C)C)[nH]4)cc(F)c3-2)[nH]1)C1C[C@@H](C)O[C@@H](C)C1` (single isomer, unassigned) [Compound 65], the IC50 worked out at 0.095 nM in the assay with HCV replicon 1AQ30D (setting [3]); 0.044 nM with HCV replicon 2B (read-out: 2B IC50, replicon 2B); 3 pM with HCV replicon 1B (Hepatitis C virus); 2.1 pM in the assay with HCV replicon 1A; 0.0081 nM with HCV replicon 1AY93H (setting [2]).

Consider `COC(=O)NC(C(=O)N1CCC[C@H]1c1ncc(-c2ccc3c(c2)cc2n3C(c3cnc(C4CCC4)s3)Oc3cc(-c4cnc([C@@H]5CCCN5C(=O)[C@@H](NC(=O)OC)C(C)C)[nH]4)cc(F)c3-2)[nH]1)C1C[C@@H](C)O[C@@H](C)C1` (single isomer, unassigned) [Compound 66], for which the concentration for half-maximal inhibition (IC50) in the assay on HCV replicon 1AQ30D (setting [1]) came to 0.018 nM; in the assay on HCV replicon 2B (read-out: 2B IC50, replicon 2B), 0.003 nM; with HCV replicon 1B (Hepatitis C virus) it was 2 pM; in the assay on HCV replicon 1A (Hepatitis C virus), 2.3 pM; with HCV replicon 1AY93H (setting [2]), 0.0021 nM.

Consider `COC(=O)NC(C(=O)N1CCC[C@H]1c1ncc(-c2ccc3c(c2)cc2n3C(c3cnc(C4CCC4)s3)Oc3cc(-c4cnc([C@@H]5CCCN5C(=O)[C@@H](NC(=O)OC)C(C)C)[nH]4)cc(F)c3-2)[nH]1)C1C[C@@H](C)O[C@@H](C)C1` (single isomer, unassigned) [Compound 67], for which the IC50 in the assay on HCV replicon 1AQ30D (setting [1]) was found to be 1.39 nM; in the assay on HCV replicon 2B (read-out: 2B IC50, replicon 2B) it was 0.056 nM; in the assay on HCV replicon 1B it was 2 pM; in the assay with HCV replicon 1A, 2 pM; in the assay on HCV replicon 1AY93H (setting [2]), 0.225 nM.

In the case of `COC(=O)NC(C(=O)N1CCC[C@H]1c1ncc(-c2ccc3c(c2)c(F)c2n3C(c3cnc(C4CC4)s3)Oc3cc(-c4cnc([C@@H]5CCCN5C(=O)[C@@H](NC(=O)OC)C(C)C)[nH]4)cc(F)c3-2)[nH]1)C1CCOC(C)(C)C1` (single isomer, unassigned) [Compound 72], the IC50 with HCV replicon 1AQ30D (setting [3]) was determined as 0.099 nM; in the assay on HCV replicon 2B (setting [4]), 0.005 nM; with HCV replicon 1B (Hepatitis C virus), 2.4 pM; in the assay on HCV replicon 1A (Hepatitis C virus), 2.9 pM; in the assay with HCV replicon 1AY93H (setting [5]), 0.006 nM.
